Results taken from paper PMC8746695, “Zinc-Chelating Compounds as Inhibitors of Human and Bacterial Zinc Metalloproteases” (Molecules, 2021).

What was measured:
[1] = target: T1, recombinant human MMP-9 (Homo sapiens, UniProt P14780); assay: Inhibition of MMP-9, fluorescence quenched peptide substrate McaPLGL(Dpa)AR-NH2; format: biochemical; conditions: substrate McaPLGL(Dpa)AR-NH2 4 µM; 30 min pre-incubation at room temperature; calculated from IC50; read-out: Ki ± s.d. MMP-9
T1 construct: made in house; host or cells: Sf9 insect cells
Method: The expression and purification of recombinant human full-length proMMP-9 (rpMMP-9) from Sf9 insect cells were performed as described previously. The amount of proMMP-9 was estimated spectrophotometrically at 280 nm using ε280 nm = 114.36 mM^−1 cm^−1 [48]. Activation of the recombinant proMMP-9 was performed with APMA (auto-activation) as described previously. The amount of active MMP-9 was determined by active site titration using galardin also described previously.
(§1) McaPLGL(Dpa)AR-NH2 was used as a substrate for MMP-9 and MMP-14, while McaRPPGFSAFK(Dnp)-OH was used as substrate for ALN, PLN and TLN. The reaction velocities/initial rates (v) were determined at 37 °C, at an excitation wavelength of 320 nm and an emission wavelength of 405 nm with a slit width of 10 nm using either a Perkin Elmer LS 50 Luminescence spectrometer and the FL WinLab Software Package (Perkin Elmer) or a Clario Star microplate reader (CLARIOstar® BMG LABTECH).
(§2) The test compounds were dissolved in 100% DMSO giving a concentration of 10 mM. A fixed substrate concentration of 4.0 µM in a total volume of 100 µL 0.1 M Hepes pH 7.5, 10 mM CaCl2, 0.005% Brij-35 and 1.0% DMSO, were used in all assays, except for ALN where the substrate concentration was 5.0 µM. The fixed enzyme concentrations were as follows; 0.05 nM MMP-9, 1.0 nM MMP-14, 1.4 nM ALN, 0.5 nM PLN and 0.21 nM TLN. Time-dependent inhibitory experiments without and with 100 μM of testing compounds were performed as follows. Compounds were either pre-incubated with the proteases for 15, 30 and 45 min at room temperature and the enzymatic reaction was started by adding the substrate, or not pre-incubated, i.e., the reaction was started by adding the protease to the mixture of substrate and compound. Control tests without compound present were performed in the same way. The reaction was followed for 30 min at 37 °C.
(§3) Enzymes with and without inhibitor were pre-incubated for 30 min at room temperature, and initial rate assays were performed as described above. Assays were performed using a Clario Star microplate reader (CLARIOstar® BMG LABTECH). The IC50 values were calculated in Graph Pad Prism 5 using Equation (1):(1) vi/v0=1/(1+10^(pIC50−pI)) where vi is the enzyme activity in the presence of inhibitor, v0 the activity in the absence of inhibitor, pI = −log [Inhibitor] in M and pIC50 = −log IC50 in M. All experiments were performed in at least triplicate.

[2] = target: T2, human MT1-MMP/MMP-14 (catalytic domain) (Homo sapiens, UniProt P50281); assay: Inhibition of MMP-14, fluorescence quenched peptide substrate McaPLGL(Dpa)AR-NH2; format: biochemical; conditions: substrate McaPLGL(Dpa)AR-NH2 4 µM; 30 min pre-incubation at room temperature; calculated from IC50; read-out: Ki ± s.d. MMP-14
T2 construct: human MT1-MMP/MMP-14 (catalytic domain); purchased Calbiochem (San Diego, CA, USA)
Method: as §1, §2, §3

[3] = target: T3, thermolysin (TLN) (Bacillus thermoproteolyticus, UniProt P00800); assay: Inhibition of thermolysin (TLN), substrate McaRPPGFSAFK(Dnp)-OH; format: biochemical; conditions: substrate McaRPPGFSAFK(Dnp)-OH 4 µM; 30 min pre-incubation at room temperature; calculated from IC50; read-out: Ki ± s.d. TLN
T3 construct: purchased Calbiochem (San Diego, CA, USA)
Method: as §1, §2, §3

[4] = target: T4, aureolysin (ALN) (Staphylococcus aureus, UniProt P81177); assay: Inhibition of aureolysin (ALN), substrate McaRPPGFSAFK(Dnp)-OH; format: biochemical
T4 construct: purchased BioCentrum Ltd. (Kraków, Poland)
Method: as §1, §2, §3

[5] = in solution; read-out: Kd for zinc; cited from earlier work

T1 sequence (P14780 107-707 limits assumed): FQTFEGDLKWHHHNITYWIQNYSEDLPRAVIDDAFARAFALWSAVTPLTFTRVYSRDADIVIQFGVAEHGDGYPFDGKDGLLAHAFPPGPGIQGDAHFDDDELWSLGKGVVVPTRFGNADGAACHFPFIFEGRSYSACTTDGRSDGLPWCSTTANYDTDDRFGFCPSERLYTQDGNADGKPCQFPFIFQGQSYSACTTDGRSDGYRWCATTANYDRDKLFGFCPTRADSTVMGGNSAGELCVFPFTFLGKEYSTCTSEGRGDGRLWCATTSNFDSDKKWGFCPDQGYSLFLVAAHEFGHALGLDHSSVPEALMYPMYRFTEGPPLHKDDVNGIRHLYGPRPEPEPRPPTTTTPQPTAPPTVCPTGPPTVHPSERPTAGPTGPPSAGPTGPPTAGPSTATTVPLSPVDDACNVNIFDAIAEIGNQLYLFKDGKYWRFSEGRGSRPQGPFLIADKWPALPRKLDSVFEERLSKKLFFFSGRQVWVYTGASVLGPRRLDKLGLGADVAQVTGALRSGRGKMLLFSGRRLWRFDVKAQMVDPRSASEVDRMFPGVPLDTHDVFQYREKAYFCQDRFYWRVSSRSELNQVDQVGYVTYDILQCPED
T3 sequence (P00800 233-548): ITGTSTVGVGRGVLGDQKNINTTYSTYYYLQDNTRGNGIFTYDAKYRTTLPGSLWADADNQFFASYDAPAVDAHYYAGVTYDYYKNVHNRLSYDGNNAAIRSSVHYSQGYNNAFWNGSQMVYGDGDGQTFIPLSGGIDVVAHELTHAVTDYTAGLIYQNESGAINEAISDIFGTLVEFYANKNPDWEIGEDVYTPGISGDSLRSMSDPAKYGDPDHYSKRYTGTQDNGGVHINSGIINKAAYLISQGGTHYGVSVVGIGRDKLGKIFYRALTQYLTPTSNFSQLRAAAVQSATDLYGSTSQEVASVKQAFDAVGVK
T4 sequence (P81177 209-509): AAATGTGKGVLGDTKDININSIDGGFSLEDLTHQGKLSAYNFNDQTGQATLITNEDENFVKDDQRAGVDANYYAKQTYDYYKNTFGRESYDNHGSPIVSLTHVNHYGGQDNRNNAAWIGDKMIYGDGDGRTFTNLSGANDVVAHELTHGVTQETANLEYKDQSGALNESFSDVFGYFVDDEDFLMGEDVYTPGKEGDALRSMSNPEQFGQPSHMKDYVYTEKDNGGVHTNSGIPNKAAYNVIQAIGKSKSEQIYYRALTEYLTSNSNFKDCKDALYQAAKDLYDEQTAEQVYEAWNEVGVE

`c1ccc(CN(Cc2ccccn2)Cc2ccccn2)nc1` [TPA, tri(2-pyridinemethyl)amine, reference compound] gave a Ki [1] of 15 ± 4 µM, a Ki [2] of 1.2 ± 0.1 µM and a Ki [3] of 5.5 ± 0.9 µM. The Ki [4] was 16 ± 1 µM and the Kd [5] was ~10 pM.
